Data published in publication PMC12346692, “SUL-150 Limits Vascular Remodeling and Ventricular Failure in Pulmonary Arterial Hypertension” (International Journal of Molecular Sciences, 2025).
Where “and” joins values, the source holds several entries; their conditions need not be identical. Equal values may be shown once. Marks after values point to notes of the source that are not given here.

What was measured:
Type in all cases: in vivo, rat
[1] = tested on: PAH rats; assay: Echocardiogram and hemodynamic measurements in monocrotaline + aortocaval shunt PAH rats; design: LVOT VTI / PV Acceleration slope: unit not given here
Procedure: Animal care and experiments were approved by the Institutional Animal Care and Use Committee (CCD # AVD105002015129) and in accordance with the ARRIVE guidelines. Forty (40) male Wistar rats (Harlan, 7–9 weeks old, weighing 276 ± 15 g) were used. PAH was induced by a single i.p. injection of monocrotaline (60 mg·kg^−1) and the placement of an aortocaval shunt one week later as described previously.
(§1) The administration of vehicle and SUL-150 started 7 days post-monocrotaline injection and was performed by the i.p. implantation of osmotic minipumps (Alzet model #2004, Durect Corp., Cupertino, CA, USA) at the time of aortocaval shunt placement. The Lynch coil method was used to circumvent compatibility issues with the osmotic minipump reservoir as described previously. Vehicle (dimethyl sulfoxide (DMSO) or SUL-150 ((R)-(6-hydroxy-2,5,7,8-tetramethylchroman-2-yl)(piperazin-1-yl)methanone, 0.9 M in DMSO, Sulfateq BV, Groningen, The Netherlands) was administered at a flow rate of 0.25 µL·h^−1, accumulating to an approximate dose of 6 mg·kg^−1·day^−1 SUL-150 in a 300 g rat. Animals were weighed, watched for dyspnea, cyanosis, and oedema, and sacrificed preterm when a 15% weight loss or debilitating dyspnea occurred.
Echocardiographic (ECG) examination was performed under isoflurane anesthesia (5% in air during induction, 2% in air during maintenance) via inhalation prior to euthanisation using a Vivid Dimension 7 system and 10S-transducer (GE Healthcare, Waukesha, WI, USA). Ventricular dimensions, eccentricity index, and flow profiles over the aortic, pulmonary, and tricuspid valves were measured in standard views. Cardiac output (mL·min^−1) was calculated using the following equation: CO(mL·min^−1)=(LVOTarea×LVOTVTI)×HR , wherein LVOT area is the area of the left ventricular outflow tract, LVOT VTI is the velocity-time integral and HR is heart rate. Subsequent to ECG, invasive hemodynamic measurements were performed using a closed chest technique as described by others. A fluid-filled pressure catheter was inserted into the right internal jugular vein and guided to the pulmonary artery under pressure waveform monitoring using a bedside monitor. Right ventricular systolic and diastolic pressure, pulmonary arterial pressures, and pulmonary wedge pressure were measured. Mean pulmonary arterial pressure (mmHg) was calculated as: mPAP(mmHg)=(2/3dPAP+1/3sPAP) , wherein dPAP and sPAP are diastolic and systolic pulmonary artery pressure, respectively. Total pulmonary vascular resistance was estimated as: PVRmmHg·mL·min^−1=(mPAP−PCWP)/CO , wherein mPAP, mPWP, and CO are mean pulmonary artery pressure, pulmonary capillary wedge pressure, and cardiac output, respectively.

[2] = tested on: PAH rats; assay: Histochemistry: pulmonary artery and vessel remodeling, cardiomyocyte hypertrophy, cardiac fibrosis; conditions: ~6 mg·kg^−1·day^−1 i.p. minipump, 28 days
Procedure: Cross-sectional cardiomyocyte area was determined for approximately 400 cardiomyocytes/sample (range 182–768) using Fiji 2.1.0/1.53c in binary mode with the following particle analyzer settings: circularity 0.25–1.00 and pixel area 300–1000 px^2.
Cardiac fibrosis was measured after picrosirius staining and counterstaining with Weigert’s hematoxylin (both Sigma-Aldrich, St. Louis, MO, USA) following the manufacturer’s instructions. Samples were imaged on a NanoZoomer digital slide scanner (Hammamatsu Photonics, Shizuoka, Japan) at 40× magnification. Interstitial fibrosis (i.e., non-perivascular fibrosis) was quantified using Aperio ImageScope (Leica Biosystems, Nussloch, Germany). Morphology of the intra-acinar pulmonary vessels was assessed after Verhoeff-Von Gieson staining (Sigma-Aldrich, St. Louis, MO, USA). Samples were imaged on a Leica DM2000 microscope at 63× magnification using Leica Image Acquisition software version 4.13 (Leica, Wetzlar, Germany). Pulmonary vessel remodeling was quantified as described previously.

[3] = tested on: PAH rats; assay: In-life data (body weight, discomfort, mortality) during chronic SUL-150 administration; conditions: ~6 mg·kg^−1·day^−1 i.p. minipump, 28 days
Procedure: as §1
Three rats died during the study without a clear cause at necropsy and were excluded (sham control (n = 1) and vehicle-treated (n = 2) rats). At sacrifice, 7 rats were excluded from the study because of procedural motives: in two rats (vehicle (n = 1) and SUL-150-treated (n = 1) rats), adequate AC shunt could not be confirmed. In two other rats (both SUL-150-treated rats), the osmotic pumps were blocked by adipose deposits, limiting their function. Three rats died during cardiac function assessment (sham control (n = 2) and SUL-150 treated (n = 1) rats). Twenty rats were included in the study (sham control (n = 7), vehicle-treated (n = 7), and SUL-150-treated (n = 6) rats.

[4] = PAH rats, ~6 mg·kg^−1·day^−1 i.p. minipump, 28 days
[5] = PAH rats, ~6 mg·kg^−1·day^−1 i.p. minipump, 28 days, echocardiography
[6] = PAH rats, ~6 mg·kg^−1·day^−1 i.p. minipump, 28 days, result in words
[7] = SUL-150-treated versus vehicle-treated PAH rats

Cc1c(C)c2c(c(C)c1O)CC[C@](C)(C(=O)N1CCNCC1)O2 [SUL-150, (R)-(6-hydroxy-2,5,7,8-tetramethylchroman-2-yl)(piperazin-1-yl)methanone]
Pulmonary artery pressure, Diastolic [1, 4]: 19.0 ± 5.7 mmHg
Pulmonary artery pressure, Mean (mPAP) [1, 4]: 27.7 mmHg and 27.7 ± 5.8 mmHg and 27.7 ± 5.8 ^a mmHg
Pulmonary wedge pressure, Mean [1, 4]: 4.8 ± 1.9 mmHg
Tricuspid valve insufficiency, Average grade (0–3) [1, 4]: 1.0 ± 1.0 ^a,b
Tricuspid valve insufficiency, Mild [1, 4]: 14.3%
Tricuspid valve insufficiency, Moderate [1, 4]: 42.9%
Tricuspid valve insufficiency, Severe [1, 4]: 0%
Vascular resistance, Pulmonary ([1]; PAH rats, ~6 mg·kg^−1·day^−1 i.p. minipump, 28 days, (mPAP−PCWP)/CO): 0.12 ± 0.05 mmHg·min·mL^−1
LVIDd [1, 5]: 4.27 ± 0.46 mm
LVOT Pmax [1, 5]: 5.57 ± 3.73 mmHg
LVOT VTI [1, 5]: 6.16 ± 2.33
LVOT Vmax [1, 5]: 1.12 ± 0.39 m·s^−1
LVOT diameter [1, 5]: 3.37 ± 0.24 ^b mm
PAAT [1, 5]: 17.07 ± 4.17 ms
PV Acceleration slope [1, 5]: 65.37 ± 19.75
PV Pmax [1, 5]: 5.74 ± 1.50 mmHg
PV Vmax [1, 5]: 1.14 ± 0.19 m·s^−1
RVIDd [1, 5]: 3.87 ± 1.37 ^b mm
RVIDd/LVIDd ratio [1, 5]: 0.92 ± 0.35
TAPSE [1, 5]: 2.90 ± 0.49 ^b mm
cardiac output [1, 6]: normalized
heart rate [1, 6]: normalized
decrease in diastolic pulmonary artery pressure compared to PAH rats [1, 7]: 25%
decrease in right ventricle inner diameter in diastole versus PAH rats [1, 7]: 38%
decrease in right ventricular pressure at diastole versus PAH rats [1, 7]: 52%
increase in stroke volume compared to vehicle-treated PAH rats [1, 7]: 68%
cardiomyocyte cross-sectional area (right ventricle) [2]: 246.1 ± 39.4 µm^2
cross-sectional vascular area [2]: 888.2 ± 146.7 µm^2
interstitial fibrosis in the cardiac tissue [2]: 9.3 % of tissue area
intra-acinar pulmonary vessels, cross-sectional lumen area [2]: 365.7 ± 101.1 µm^2
intra-acinar vessel occlusion score [2]: 39.0 ± 7.4%
pulmonary artery wall thickness [2]: 57.6 ± 13.0 µm
wall–lumen ratio [2]: 0.42 ± 0.12 µmwall·µmlumen^−1
percentage of non-perfusable vessels ([2]; vessels with a luminal area < 40 µm^2): 4.45 ± 2.62%
Dyspnea frequency [3]: 33.3 % of rats
Edema frequency [3]: 0 % of rats and 0 ^a,b % of rats
End weight (day 32–33) [3]: 319.3 ± 12.0 ^a g
Mortality (%) [3]: 0 (0%) ^a,b
number of rats with dyspnea [3]: 2 n
survival rate [3]: 100%
